# Measurements published in patent US11523610B2, “Regulating plant growth using a diapocarotenoid” (King Abdullah University of Science and Technology, priority 2018, dated 2022).
# What was measured:
# [1] = system: Arabidopsis seedlings (anchor roots after RAM excision); experiment: ANR formation after root apical meristem excision (ANR-RE); assay type: in vivo
# Source text: (§1) ANRs were counted in seedlings vertically grown on half strength MS (with 0.5% sucrose +1% agar, 0.5 g/L MES, pH 5.7) media 8 days post-stratification (dps) using a dissection microscope. To investigate ANR formation after root apical meristems (RAM) excision (ANR-RE), RAM of seedlings were excised using sterile scalpels at 5 dps and then grown for another 3 days prior to counting the number of emerged ANRs. RAM of seedlings were excised at 8 dps and then grown for another 3 days prior to counting the number of emerged LRs. For determining the effect of anchorene on lateral roots, the number of emerged lateral roots were counted using a dissection microscope at 8 dps. For primary root length measurements, seedlings were measured using the publicly available ImageJ software (downloaded from rsbweb.nih.gov/ij/) after taking digital photographs. For adventitious root assay, the number of emerged adventitious roots per plant were counted after 5 days of treatment on plates with or without anchorene.
# ANR formation under carotenoid-deficient conditions was monitored to determine the role of endogenous carotenoids in ANR development. […] Therefore, ANR formation was monitored after RAM excision (ANR-RE) to stimulate ANR development. ANR measurements were used as an indicator of ANR formation capacity under different conditions. […] Norflurazon (NF) and 2-(4-chlorophenylthio)-triethylamine hydrochloride (CPTA), which block phytoene desaturation and lycopene cyclization, respectively were tested (FIG. 6A). The effect of D15, an inhibitor of CCDs was also investigated. Application of D15 to Arabidopsis seedlings is known to lead to an increase in carotenoid levels.
# [2] = system: Arabidopsis seedlings (anchor roots); experiment: Anchor root (ANR) emergence/formation in seedlings without RAM excision; assay type: in vivo; settings: for activity in promoting ANR formation: anchorene isomer and derivatives, concentrations as indicated in FIGS. 3G-H
# Procedure: (§2) Sterilized Col-0 and mutants seeds were kept at 4° C. in darkness for 3 days to stimulate seed germination, and then sown on half strength MSO plates (with 0.5% sucrose +1% agar, 0.5g/L MES, pH 5.7) supplemented with the indicated chemicals as described below or in the Figures. Plates were vertically grown in PERCIVAL® growth chambers under long day (16 h light/8 h dark, 22° C., 60% relative humidity, light density: 4000 LUX) LED white light [HYPERIKON® 16 W LED Light Bulb A21, 16 W (100 W Equivalent), CRI92, 1620 Lumens, 4000K (Daylight Glow)] conditions. Light fluorescence rates were measured using a digital LUX meter (PEAKTECH® 5025).
# as §1
# Prior to the anchor root (ANR) measurements, seeds from 10 ecotypes (Po-0, Is-0, Wu-0, Col-0, Cvi-0, Hi-0, Ove-0, Sav-0, Ler and Kin-0) were harvested from plants grown in long-day photoperiod conditions (16h light/8 h darkness, 22° C., 60% humidity). Seeds of all 10 ecotypes were surfaced sterilized and incubated in sterile water at 4° C. for 8 days, for uniform germination. Natural ANR emergence and ANRC was measured as described above (Anchor root assays) for each ecotype. 20 μM anchorene was used to test the responses of the Po-0 and Is-0 ecotypes to anchorene.
# Excision of the root apical meristems (RAM) triggers ANR formation (FIGS. 3C-D). […] About 9% of control Col-0 seedlings developed ANRs under normal conditions, while approximately 50% formed ANRs upon RAM excision (FIGS. 4B-C). […] Higher anchorene concentrations (10 and 20 μM) enhanced this ratio to 97% and 100%, respectively (FIGS. 4B-C). There was also an increase in the number of seedlings that developed two ANRs from 0% in the untreated control to approximately 80% upon application of 20 μM anchorene (FIGS. 4B-C). Using a wide range of concentrations, a dose-response curve was established in the presence and absence of RAM excision. […] Thus, the promotion of ANRs is not caused by inhibiting primary root growth.
# [3] = system: Arabidopsis root growth (Col-0 seedlings); experiment: Primary root length of Arabidopsis seedlings on treated half MS agar plates; assay type: in vivo; settings: 25 μM, 7 dps
# Procedure: β-cyclocitral, β-ionone and D′orenone (β-Apo-13-caroteneone) (FIG. 1A) were purchased from Buchem (Netherlands). Diapo1, Diapo2, Diapo3, Diapo4, Diapo5, and Diapo6 (FIG. 1B) were synthesized by Buchem (Netherlands). Diapo3 was also synthesized together with D6-anchorene and anchorene derivatives according to the protocol of SCHEME 2. Apocarotenoids and diapocarotenoids were dissolved in acetone to make stock solutions (10 mM). For the screening experiments, each chemical was diluted in half strength Murashige and Skoog (MS) media (with 0.5% sucrose+1% agar, 0.5 g/L MES, pH 5.7) to reach indicated concentrations of 25 μM and 5 μM. A stock solution of 10 mM GR24 (Chiralix, Netherlands) was also made by diluting GR24 in acetone. Stock solutions of D15 (100 mM), Norflurazone (5 mM), and CPTA (50 mM) were made in dimethyl sulfoxide (DMSO). For experiments, these compounds were diluted in concentrations of 125 μM D15, 500 nM Norflurazone, or 100 μM CPTA, respectively. 1-Naphthaleneacetic acid (NAA) and N-1-Naphthylphthalamic Acid (NPA) were purchased from Sigma-Aldrich (Germany) and dissolved in water to make 1 mM stock solutions. For NAA and NPA treatments, media containing 0.1 μM NAA and 1 μM NPA were used. Unless otherwise noted, all commercially available compounds were used as provided without further purification.
# as §2, with “([…]®” for “(PEAKTECH®”
# as §1
# Six previously identified or predicted diapocarotenoids with chain lengths ranging from C9 to C15 (Diapo1-6) (FIG. 1B) and 3 apocarotenoids (FIG. 1C) were selected to identify new carotenoid-derived signals involved in root development). These compounds were selected because they are available and stable at ambient conditions. Diapo1 (C9) is the expected product formed upon cleavage of all-trans-β-apo-10′ carotenal. Diapo2 (C10) results from cleaving the C7, C8 and C15, C15′ double bonds in different carotenoids and is produced by cyanobacterial retinal-forming enzymes from Cm-apocarotenoids. Diapo3 (C10) is a structural isomer of Diapo2 and a predicted cleavage product that can be formed by cutting the C11, C12 and C11′, C12′ bonds in almost all plant carotenoids (FIGS. 1A, 1B and 17). Diapo4 (C12) results from cleaving the C7, C8 and C13′, C14′ bonds in many carotenoids, and is formed by the CCD1 from apo-10′-lycopenal.
# pDR5::LUC seedlings = experiment: Luciferase assay in pDR5::LUC auxin marker line; assay type: in vivo, Arabidopsis; settings: 1 μM NF, 20 μM anchorene
# Procedure: Luciferase activity was assayed as previously described. Briefly, 1 mL of 5 mM Potassium Luciferin (Gold Biotechnology®) dissolved in water was directly applied to pDR5:LUC seedlings grown vertically on treated half strength MS plates. The luciferin solution was allowed to dry for 5-10 minutes in the dark, at room temperature. Seedlings were then imaged using a Lumazone™ CA automated Chemiluminescence system. Seven minute exposure times were used.
# A pDR5::LUC line, which marks LR prebranch sites, was used to track ANR development. […] ANR primordia initiation was observed as early as 3 dps, in anchorene treated pDR5::LUC and 158 pDR5rev::GFP seedling (FIGS. 5A-C).
# pDR5rev::GFP seedlings = experiment: Confocal microscopy of pDR5rev::GFP auxin marker line; assay type: in vivo, Arabidopsis; settings: single compound, 20 μM anchorene, 1 μM NF
# Source text: To examine pDR5Rev::GFP fluorescence at the collet region, live seedlings were directly used for laser scanning confocal microscopy (Zeiss LSM 510 microscope) examination.
# For fluorescence intensity quantification of pDR5Rev::GFP and pPIN3::PIN3-GFP marker lines, ImageJ software (rsbweb.nih.gov/ij/) was used after taking confocal microscopy photos. All calculations are background subtracted.
# [4] = LC-MS quantification of anchorene in Arabidopsis tissues
# Procedure: About 30 mg (30-40 mg) of freeze-dried and ground Arabidopsis seedlings tissues were extracted using 1 mL of acetonitrile with anti-oxidant [0.1% butylated hydroxytoluene (BHT)] for 15 min in an ultrasonic bath (Branson® 5510EDTH, 25° C., 15 min), followed by centrifugation for 8 min at 13000 rpm at 4° C. The collected supernatant was dried using a concentrator (Labconco RapidVap® System). The extract was derivatized (SCHEME 3) with 50 μL of derivatization solution containing 5 mg/mL derivatization reagent (N^2,N^2,N^4,N^4-tetraethyl-6-hydrazineyl-1,3,5-triazine-2,4-diamine) (Chemspace) and 1% formic acid in methanol at 37° C. for 15 min. Then the sample solution was diluted to 150 μL with 1% formic acid in methanol and filtered by using 0.22 μm filter before LC-MS analysis.
# The quantitative analysis of derivative anchorene were carried out on HPLC-Q-Trap MS/MS. Chromatographic separation was achieved on an Acquity UPLC CSH C18 column (50×2.1 mm; 1.7 μm; Waters) using a mobile phase consisting of water: acetonitrile (95:5, v:v, A) and pure acetonitrile (B), both containing 0.1% formic acid. A gradient was applied, starting with 10% B and increasing to 40% B over 5 min. Then 15% B was increased
# within 10 min followed by an increase of 45% B over 2 min. And then 100% B was maintained for 10 min. To equilibrate the column before the next run, the mobile phase was adjusted back to 10% B in 1 min and this concentration was maintained for 8 min prior to the next sample injection. A flow rate of 0.15 mL/min and a column temperature of 40° C. were maintained throughout the run. The eluent of the column was introduced to the mass spectrometer using turbo spray ion source in positive mode. The injection volume was 10 μL. The conditions of the mass spectrometer were set as following: curtain gas: 30; ion spray voltage: 5 kV; temperature: 400° C.; ion source gas 1: 30; ion source gas 2: 40; declustering potential, 55; entrance potential: 10; collision energy: 25; collision cell exit potential: 10. […]
# [5] = 1 μM NF, 100 μM CPTA, 150 μM D15, RAM cut at 5 DAG, grown 3 more days
structure (smiles),measurement,setting,value
"CC1=CC(=O)CC(C)(C)[C@@]1(O)/C=C/C(C)=C\C(=O)O [ABA, abscisic acid]",ANR-RE,[1]; 0.1 and 0.5 μM ABA,did not impact
"C\C(=C/C=C/C=C(\C)C(=O)O)C(=O)O [AR di-acid, (2E,4E,6E)-2,7-dimethylocta-2,4,6-trienedioic acid]",activity in promoting ANR formation,[2],inactivity
"C\C(=C/C=C/C=C(\C)CO)CO [AR di-alcohol, (2E,4E,6E)-2,7-dimethylocta-2,4,6-triene-1,8-diol]",activity in promoting ANR formation,[2],inactivity
"CCOC(=O)/C(C)=C/C=C/C=C(\C)C(=O)OCC [AR di-ethyl ester, diethyl (2E,4E,6E)-2,7-dimethylocta-2,4,6-trienedioate]",activity in promoting ANR formation,[2],inactivity
"CCN(CC)CCSc1ccc(Cl)cc1.Cl [CPTA, 2-(4-chlorophenylthio)-triethylamine hydrochloride]",ANR-RE,[1]; [5],strongly reduced
"CC(/C=C/C=O)=C\C=C\C=O [Diapo1, 10,14′-diapocarotene-10,14′-dial]",inhibition of primary root growth,[3],weak inhibition
"C\C(C=O)=C/C(C)=C/C=C/C=O [Diapo2, 8,15-diapocarotene-8,15-dial]",reduction in primary root growth,[3],approximately 80%
same,ANR formation,[2]; 25 μM (FIGS. 3G-H),modest increase
"C\C(C=O)=C/C(C)=C/C=C/C=C/C=O [Diapo4, 8,14′-diapocarotene-8,14′-dial]",inhibition of primary root growth,[3],weak inhibition
"C\C(C=O)=C/C=C/C=C/C=C(C)/C=C(\C)C=O [Diapo5, 8,12′-diapocarotene-8,12′-dial]",reduction in primary root growth,[3],approximately 80%
CC1=C[C@H](O/C=C2/C(=O)O[C@@H]3c4ccccc4C[C@H]23)OC1=O [GR24],ANR formation (ANR-RE),[1]; 1 μM GR24,inhibited ANR formation
"O=C(O)Cc1cccc2ccccc12 [NAA, 1-Naphthaleneacetic acid]",ANR-RE,"[1]; 0.1 μM NAA, 1 μM NPA",greatly increased
"CNc1cnn(-c2cccc(C(F)(F)F)c2)c(=O)c1Cl [NF, Norflurazon]",ANR-RE,[1]; [5],strongly reduced
same,LUC signal in the collet,pDR5::LUC seedlings,clear LUC signal was detected
same,GFP signal at the collet / ANR primordia,pDR5rev::GFP seedlings,No significant reduction
same,anchorene content of whole seedlings after NF treatment,"[4]; 24 hours NF treatment, 2 μM NF",decreases
same,anchorene content of whole seedlings after NF treatment,[4]; continuous NF treatment,greatly decreases
"O=C(O)c1ccccc1C(=O)Nc1cccc2ccccc12 [NPA, N-1-Naphthylphthalamic Acid]",ANR-RE,"[1]; 0.1 μM NAA, 1 μM NPA",completely blocked
